Assay results: ChEMBL document CHEMBL1151439, “Bactericidal action of daptomycin against stationary-phase and nondividing Staphylococcus aureus cells” (2007)
Values after ≈ are worked out from the molar mass of the structure shown. Active and inactive are the calls of the source. The rule behind the calls is not given here.

Legend:
Staphylococcus aureus [1] = assay: Antibacterial activity against exponential growth culture of methicillin-sensitive Staphylococcus aureus ATCC 29213 grown for 2 hrs in MHBc by broth microdilution method; format: functional
Staphylococcus aureus [2] = assay: Bactericidal activity against high inoculum density exponential growth culture of methicillin-sensitive Staphylococcus aureus ATCC 29213 grown for 2 hrs in MHBc at 10 ug/mL after 24 hrs by time kill study; format: functional, organism-based
Staphylococcus aureus [3] = assay: Bactericidal activity against CCCP-induced metabolically arrested exponential growth culture of methicillin-sensitive Staphylococcus aureus ATCC 29213 grown for 2 hrs in MHBc at 10 ug/mL after 24 hrs by time kill study; format: functional, organism-based
Staphylococcus aureus [4] = assay: Bactericidal activity against erythromycin-induced metabolically arrested exponential growth culture of methicillin-sensitive Staphylococcus aureus ATCC 29213 grown for 2 hrs in MHBc at 10 ug/mL after 24 hrs by time kill study; format: functional, organism-based
Staphylococcus aureus [5] = assay: Bactericidal activity against 1 hr cold-arrested exponential growth culture of methicillin-sensitive Staphylococcus aureus ATCC 29213 grown for 2 hrs in MHBc at 2 ug/mL incubated at 0 degC by time kill study; format: functional, organism-based
Staphylococcus aureus [6] = assay: Bactericidal activity against 24 hrs cold-arrested exponential growth culture of methicillin-sensitive Staphylococcus aureus ATCC 29213 grown for 2 hrs in MHBc at 2 ug/mL incubated at 37 degC after 2 hrs by time kill study; format: functional, organism-based
Staphylococcus aureus [7] = assay: Bactericidal activity against high inoculum density stationary phase culture of methicillin-sensitive Staphylococcus aureus ATCC 29213 grown for >17 hrs in MHBc at 100 ug/mL after 24 hrs by time kill study; format: functional, organism-based
Staphylococcus aureus [8] = assay: Bactericidal activity against exponential growth culture of methicillin-sensitive Staphylococcus aureus ATCC 29213 grown for 2 hrs in MHBc assessed as logarithmic reduction in CFU at 2 ug/ml within 60 mins by time kill study; format: functional
Staphylococcus aureus [9] = assay: Bactericidal activity against high inoculum density stationary phase culture of methicillin-sensitive Staphylococcus aureus ATCC 29213 grown for >17 hrs in MHBc by time kill study; format: functional, organism-based
Staphylococcus aureus [10] = assay: Bactericidal activity against stationary phase culture of methicillin-sensitive Staphylococcus aureus ATCC 29213 grown for 17 hrs in MHBc at 32 ug/ml after 24 hrs by time kill study; format: functional, organism-based
Staphylococcus aureus [11] = assay: Bactericidal activity against high inoculum density stationary phase culture of methicillin-sensitive Staphylococcus aureus ATCC 29213 grown for >17 hrs in MHBc assessed as log reduction in CFU per millimiter at 100 ug/mL after 8 hrs by time kill study; format: functional
Staphylococcus aureus [12] = assay: Bactericidal activity against high inoculum density stationary phase culture of methicillin-sensitive Staphylococcus aureus ATCC 29213 grown for >17 hrs in MHBc at 10 ug/mL after 24 hrs by time kill study; format: functional, organism-based
Staphylococcus aureus [13] = assay: Bactericidal activity against high inoculum density exponential growth culture of methicillin-sensitive Staphylococcus aureus ATCC 29213 grown for 2 hrs in MHBc assessed as log reduction in cell density at 100 ug/mL after 1 hr by time kill study; format: functional, organism-based
Staphylococcus aureus [14] = assay: Bactericidal activity against high inoculum density stationary phase culture of methicillin-sensitive Staphylococcus aureus ATCC 29213 grown for >17 hrs in MHBc at 100 ug/mL after prolonged treatment period by time kill study; format: functional, organism-based
Staphylococcus aureus [15] = assay: Bactericidal activity against stationary phase culture of methicillin-sensitive Staphylococcus aureus ATCC 29213 grown for >17 hrs in MHBc followed by dilution in nutrient depleted MHBc assessed as logarithmic reduction in CFU per millimiter at 10 ug/mL after 24 hrs by time kill study; format: functional
Staphylococcus aureus [16] = assay: Bactericidal activity against stationary phase culture of methicillin-sensitive Staphylococcus aureus ATCC 29213 grown for >17 hrs in MHBc followed by dilution in nutrient depleted MHBc assessed as logarithmic reduction in CFU per millimiter at 100 ug/mL after 24 hrs by time kill study; format: functional, organism-based
Staphylococcus aureus [17] = assay: Bactericidal activity against high inoculum density stationary phase culture of methicillin-sensitive Staphylococcus aureus ATCC 29213 grown for >17 hrs in MHBc assessed as effect on viability at 100 ug/mL after 4 hrs by time kill study; format: functional, organism-based

| Compound | MIC (Staphylococcus aureus [1]; ATCC 29213, 2 h) [µg/mL] | Activity (Staphylococcus aureus [2]) | Activity (Staphylococcus aureus [3]) | Activity (Staphylococcus aureus [4]) | Activity (Staphylococcus aureus [5]) | Activity (Staphylococcus aureus [6]) | Activity (Staphylococcus aureus [7]) | also measured |
| --- | --- | --- | --- | --- | --- | --- | --- | --- |
| O=C(O)c1cn(C2CC2)c2cc(N3CCNCC3)c(F)cc2c1=O [CIPROFLOXACIN] | 0.5 (≈ 1.51 µM) | Active | inactive | inactive | inactive | Active | – | – |
| GENTAMICIN | – | – | – | – | – | – | Active | MIC (Staphylococcus aureus [1]): 0.25 µg/mL |
| CCCCCCCCCC(=O)N[C@@H](Cc1c[nH]c2ccccc12)C(=O)N[C@H](CC(N)=O)C(=O)N[C@@H](CC(=O)O)C(=O)N[C@@H]1C(=O)NCC(=O)N[C@@H](CCCN)C(=O)N[C@@H](CC(=O)O)C(=O)N[C@H](C)C(=O)N[C@@H](CC(=O)O)C(=O)NCC(=O)N[C@H](CO)C(=O)N[C@@H]([C@H](C)CC(=O)O)C(=O)N[C@@H](CC(=O)c2ccccc2N)C(=O)O[C@@H]1C | 0.5 (≈ 0.309 µM) | Active | Active | Active | Active | Active | – | Activity (Staphylococcus aureus [8]): 3; Activity (Staphylococcus aureus [9]): Dose-dependent effect; Activity (Staphylococcus aureus [10]): Active; Activity (Staphylococcus aureus [11]): 3; Activity (Staphylococcus aureus [12]): inactive; Activity (Staphylococcus aureus [13]): Active; Activity (Staphylococcus aureus [14]): Active; Activity (Staphylococcus aureus [15]): >1; Activity (Staphylococcus aureus [16]): Active |
| CCOc1ccc2ccccc2c1C(=O)N[C@@H]1C(=O)N2[C@@H]1SC(C)(C)[C@@H]2C(=O)O [NAFCILLIN] | 0.125 (≈ 0.302 µM) | – | – | – | inactive | Active | – | – |
| CN[C@H](CC(C)C)C(=O)N[C@H]1C(=O)N[C@@H](CC(N)=O)C(=O)N[C@H]2C(=O)N[C@H]3C(=O)N[C@H](C(=O)N[C@H](C(=O)O)c4cc(O)cc(O)c4-c4cc3ccc4O)[C@H](O)c3ccc(c(Cl)c3)Oc3cc2cc(c3O[C@@H]2O[C@H](CO)[C@@H](O)[C@H](O)[C@H]2O[C@H]2C[C@](C)(N)[C@H](O)[C@H](C)O2)Oc2ccc(cc2Cl)[C@H]1O | – | – | – | – | – | – | inactive | Activity (Staphylococcus aureus [17]): inactive |
